Reference: patent US9604964B2, “Dihydropyrazole GPR40 modulators” (BRISTOL-MYERS SQUIBB COMPANY, priority 2012, dated 2017)

Target: human GPR40 (Homo sapiens, UniProt O14842)
Experiment: FDSS-based intracellular calcium assay (Human GPR40 in vitro assay)
Format: cell-based
Set-up: 3xFLAG; expressed in transfected cells
Settings: intracellular Ca2+ response, cells expressing GPR40; read-out: hGPR40 EC50
Method: FDSS-based Intracellular Calcium Assay
Compounds are dissolved in DMSO and diluted to desired concentrations with assay buffer and added to the cells as 3× solution (20 μL per well). Run fluorescence/luminescence reader FDSS (Hamamatsu) to read intracellular Ca^2+ response.

Sequence of human GPR40 (O14842 whole entry): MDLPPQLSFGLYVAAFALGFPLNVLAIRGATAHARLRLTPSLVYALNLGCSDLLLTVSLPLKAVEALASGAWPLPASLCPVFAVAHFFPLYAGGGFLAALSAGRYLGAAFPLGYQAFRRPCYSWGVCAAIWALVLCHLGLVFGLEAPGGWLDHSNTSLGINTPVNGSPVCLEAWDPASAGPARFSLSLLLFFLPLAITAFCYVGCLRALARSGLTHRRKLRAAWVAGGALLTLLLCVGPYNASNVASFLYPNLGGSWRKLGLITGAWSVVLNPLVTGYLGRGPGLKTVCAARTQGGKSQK

SMILES | EC50
CCOc1ccc(F)c(N2CCC(Cc3ccc(N4N=C(C(F)(F)F)[C@@H](C)[C@@H]4CC(=O)O)cc3)C(C)C2)c1 (single isomer, unassigned) [Example 3 (Isomer 4)] | 0.672 µM
CCOc1ccc(F)c(N2CCC(Cc3ccc(N4N=C(C(F)(F)F)[C@@H](C)[C@@H]4CC(=O)O)cc3)C(C)C2)c1 (single isomer, unassigned) [Example 3 (Isomer 3)] | 1.14 µM
COCC1CN(c2cc(OC)ncc2Cl)CCC1Oc1ccc(N2N=C(C(F)(F)F)[C@@H](C)[C@@H]2CC(=O)O)cc1 (single isomer, unassigned) [Example B3, Isomer 3] | 2 µM
C[C@@H]1C(C(F)(F)F)=NN(c2ccc(OC3CCN(c4nccs4)CC3)cc2)[C@H]1CC(=O)O [Example 13, 2-((4S,5S)-4-methyl-1-(4-((1-(thiazol-2-yl)piperidin-4-yl)oxy)phenyl)-3-(trifluoromethyl)-4,5-dihydro-1H-pyrazol-5-yl)acetic acid] | 1.69 µM
Cc1nc2ccc(N3CCC(Oc4ccc(N5N=C(C(F)(F)F)[C@@H](C)[C@@H]5CC(=O)O)cc4)CC3)cc2o1 [Example B18, 2-((4S,5S)-4-Methyl-1-(4-((1-(2-methylbenzo[d]oxazol-6-yl)piperidin-4-yl)oxy)phenyl)-3-(trifluoromethyl)-4,5-dihydro-1H-pyrazol-5-yl)acetic acid] | 5.2 µM
C[C@@H]1C(C(F)(F)F)=NN(c2ccc(OC3CCN(C(=O)OCc4ccccc4)CC3)cc2)[C@H]1CC(=O)O [Example 14, 2-((4S,5S)-1-(4-((1-((benzyloxy)carbonyl)piperidin-4-yl)oxy)phenyl)-4-methyl-3-(trifluoromethyl)-4,5-dihydro-1H-pyrazol-5-yl)acetic acid] | 4.27 µM
C[C@@H]1C(C(F)(F)F)=NN(c2ccc(OC3CCN(S(=O)(=O)c4ccccc4C#N)CC3)cc2)[C@H]1CC(=O)O [Example B21] | 7.95 µM
COc1ccc(F)c(N2C[C@H]3C[C@@H]2CC3Oc2ccc(N3N=C(C(F)(F)F)[C@@H](C)[C@@H]3CC(=O)O)cc2)c1 (stereo partly drawn) [Example 69, 2-((4S,5S)-1-(4-(((1R,4R)-2-(2-fluoro-5-methoxyphenyl)-2-azabicyclo[2.2.1]heptan-5-yl)oxy)phenyl)-4-methyl-3-(trifluoromethyl)-4,5-dihydro-1H-pyrazol-5-yl)acetic acid] | 0.847 µM
C[C@@H]1C(C(F)(F)F)=NN(c2ccc(OC3CCN(c4cc(-c5ncco5)ccc4F)CC3)cc2)[C@H]1CC(=O)O [Example B17, 2-((4S,5S)-1-(4-((1-(2-Fluoro-5-(oxazol-2-yl)phenyl)piperidin-4-yl)oxy)phenyl)-4-methyl-3-(trifluoromethyl)-4,5-dihydro-1H-pyrazol-5-yl)acetic acid] | 2.49 µM
COc1cc(N2CC(COc3ccc(N4N=C(C(F)(F)F)[C@@H](C)[C@@H]4CC(=O)O)cc3)C2)c(Cl)cn1 [Example B33, 2-((4S,5S)-1-(4-((1-(5-chloro-2-methoxypyridin-4-yl)azetidin-3-yl)methoxy)phenyl)-4-methyl-3-(trifluoromethyl)-4,5-dihydro-1H-pyrazol-5-yl)acetic acid] | 0.713 µM
C[C@@H]1C(C(F)(F)F)=NN(c2ccc(OC3CCN(c4cccc5c4OCCO5)CC3)cc2)[C@H]1CC(=O)O [Example B19, 2-((4S,5S)-1-(4-((1-(2,3-Dihydrobenzo[b][1,4]dioxin-5-yl)piperidin-4-yl)oxy)phenyl)-4-methyl-3-(trifluoromethyl)-4,5-dihydro-1H-pyrazol-5-yl)acetic acid] | 6.2 µM
C[C@@H]1C(C(F)(F)F)=NN(c2ccc(OC3CCN(c4cc5c(cc4Cl)OCO5)CC3)cc2)[C@H]1CC(=O)O [Example B14, 2-((4S,5S)-1-(4-((1-(6-Chlorobenzo[d] [1,3]dioxol-5-yl)piperidin-4-yl)oxy)phenyl)-4-methyl-3-(trifluoromethyl)-4,5-dihydro-1H-pyrazol-5-yl)acetic acid] | 0.569 µM
CCOc1ccc(F)c(N2CCC(Oc3ccc(N4N=C(C#N)C(C)C4CC(=O)O)cc3)CC2)c1 (single isomer, unassigned) [Example B5, Isomer 2, 2-(3-cyano-1-(4-((1-(5-ethoxy-2-fluorophenyl)piperidin-4-yl)oxy)phenyl)-4-methyl-4,5-dihydro-1H-pyrazol-5-yl)acetic acid] | 4.95 µM
CC1CN(c2cc(OCC(F)(F)F)ccc2F)CCC1Oc1ccc(N2N=C(C(F)(F)F)[C@@H](C)[C@@H]2CC(=O)O)cc1 (stereo partly drawn) [Example 11, 2-((4S,5S)-1-(4-((1-(2-fluoro-5-(2,2,2-trifluoroethoxy)phenyl)-3-methylpiperidin-4-yl)oxy)phenyl)-4-methyl-3-(trifluoromethyl)-4,5-dihydro-1H-pyrazol-5-yl)acetic acid] | 1.08 µM
C[C@@H]1C(C(F)(F)F)=NN(c2ccc(OC3CCN(c4cnc(Cl)cn4)CC3)cc2)[C@H]1CC(=O)O [Example 55, 2-((4S,5S)-1-(4-((1-(5-chloropyrazin-2-yl)piperidin-4-yl)oxy)phenyl)-4-methyl-3-(trifluoromethyl)-4,5-dihydro-1H-pyrazol-5-yl)acetic acid] | 6.25 µM
COc1cc(N2CC[C@@H](Oc3ccc(N4N=C(C(F)(F)F)[C@@H](C)[C@@H]4CC(=O)O)cc3)[C@H](CO)C2)c(Cl)cn1 [Example B1, 2-((4S,5S)-1-(4-(((3S,4R)-1-(5-chloro-2-methoxypyridin-4-yl)-3-(hydroxymethyl)piperidin-4-yl)oxy)phenyl)-4-methyl-3-(trifluoromethyl)-4,5-dihydro-1H-pyrazol-5-yl)acetic acid] | 2.48 µM
C[C@@H]1C(C(F)(F)F)=NN(c2ccc(OC3CCN(S(=O)(=O)c4ccccc4C(F)(F)F)CC3)cc2)[C@H]1CC(=O)O [Example B25, 2-((4S,5S)-4-Methyl-3-(trifluoromethyl)-1-(4-((1-((2-(trifluoromethyl)phenyl)sulfonyl)piperidin-4-yl)oxy)phenyl)-4,5-dihydro-1H-pyrazol-5-yl)acetic acid] | 4.42 µM
COc1cccc(N2CCC(Cc3ccc(N4N=C(C(F)(F)F)[C@@H](C)[C@@H]4CC(=O)O)cc3)CC2)c1 [Example B8, 2-((4S,5S)-1-(4-((1-(3-methoxyphenyl)piperidin-4-yl)methyl)phenyl)-4-methyl-3-(trifluoromethyl)-4,5-dihydro-1H-pyrazol-5-yl)acetic acid] | 0.761 µM
C[C@@H]1C(C(F)(F)F)=NN(c2ccc(OCC3CN(c4ccc5c(c4)OCO5)C3)cc2)[C@H]1CC(=O)O [Example B34, 2-((4S,5S)-1-(4-((1-(benzo[d] [1,3]dioxol-5-yl)azetidin-3-yl)methoxy)phenyl)-4-methyl-3-(trifluoromethyl)-4,5-dihydro-1H-pyrazol-5-yl)acetic acid] | 4.76 µM
COCC1CN(c2cc(OC)ncc2Cl)CCC1Oc1ccc(N2N=C(C(F)(F)F)[C@@H](C)[C@@H]2CC(=O)O)cc1 (single isomer, unassigned) [Example B3, Isomer 1] | 0.352 µM
COc1ccc(F)c(N2C(=O)[C@@H]3C[C@H]2CC3Oc2ccc(N3N=C(C(F)(F)F)[C@@H](C)[C@@H]3CC(=O)O)cc2)c1 (stereo partly drawn) [Example 68, 2-((4S,5S)-1-(4-(((1S,4R)-2-(2-fluoro-5-methoxyphenyl)-3-oxo-2-azabicyclo[2.2.1]heptan-5-yl)oxy)phenyl)-4-methyl-3-(trifluoromethyl)-4,5-dihydro-1H-pyrazol-5-yl)acetic acid] | 5.04 µM
C[C@@H]1C(C(F)(F)F)=NN(c2ccc(OC3CCN(c4cc(OC5CCCC5)cc(F)c4F)CC3)cc2)[C@H]1CC(=O)O [Example 19, 2-((4S,5S)-1-(4-((1-(5-(cyclopentyloxy)-2,3-difluorophenyl)piperidin-4-yl)oxy)phenyl)-4-methyl-3-(trifluoromethyl)-4,5-dihydro-1H-pyrazol-5-yl)acetic acid] | 4.82 µM
C[C@@H]1C(C(F)(F)F)=NN(c2ccc(OC3CCN(c4ncc(Cl)cn4)CC3)cc2)[C@H]1CC(=O)O [Example 7, 2-((4S,5S)-1-(4-((1-(5-chloropyrimidin-2-yl)piperidin-4-yl)oxy)phenyl)-4-methyl-3-(trifluoromethyl)-4,5-dihydro-1H-pyrazol-5-yl)acetic acid] | 4.48 µM
CCCc1cnc(N2CCC(Oc3ccc(N4N=C(C(F)(F)F)[C@@H](C)[C@@H]4CC(=O)O)cc3)CC2)nc1 [Example 5, 2-((4S,5S)-4-methyl-1-(4-((1-(5-propylpyrimidin-2-yl)piperidin-4-yl)oxy)phenyl)-3-(trifluoromethyl)-4,5-dihydro-1H-pyrazol-5-yl)acetic acid] | 5.81 µM
COc1ccc(F)c(N2CCC(Cc3ccc(N4N=C(C(F)(F)F)[C@@H](C)[C@@H]4CC(=O)O)cc3)CC2)c1 [Example 100, 2-((4S,5S)-1-(4-((1-(2-fluoro-5-methoxyphenyl)piperidin-4-yl)methyl)phenyl)-4-methyl-3-(trifluoromethyl)-4,5-dihydro-1H-pyrazol-5-yl)acetic acid] | 0.266 µM
COc1ccc(F)c(N2CCCC(Oc3ccc(N4N=C(C(F)(F)F)[C@@H](C)[C@@H]4CC(=O)O)cc3)CC2)c1 (stereo partly drawn) [Example 23, 2-((4S,5S)-1-(4-((1-(2-fluoro-5-methoxyphenyl)azepan-4-yl)oxy)phenyl)-4-methyl-3-(trifluoromethyl)-4,5-dihydro-1H-pyrazol-5-yl)acetic acid] | 3.02 µM
CCOc1ccc(F)c(N2CCC(Oc3ccc(N4N=C(C#N)C(C)C4CC(=O)O)cc3)CC2)c1 (single isomer, unassigned) [Example B5 Isomer 1, 2-(3-cyano-1-(4-((1-(5-ethoxy-2-fluorophenyl)piperidin-4-yl)oxy)phenyl)-4-methyl-4,5-dihydro-1H-pyrazol-5-yl)acetic acid] | 0.389 µM
CC(C)CS(=O)(=O)N1CCC(Oc2ccc(N3N=C(C(F)(F)F)[C@@H](C)[C@@H]3CC(=O)O)cc2)CC1 [Example B23, 2-((4S,5S)-1-(4-((1-(isobutylsulfonyl)piperidin-4-yl)oxy)phenyl)-4-methyl-3-(trifluoromethyl)-4,5-dihydro-1H-pyrazol-5-yl)acetic acid] | 2 µM
